Test results as given in ChEMBL document CHEMBL4004803, “Syntheses and antibacterial activity of soluble 9-bromo substituted indolizinoquinoline-5,12-dione derivatives” (Eur J Med Chem, 2017).

Assays:
[1] = test system: Staphylococcus aureus; assay: Antibacterial activity against methicillin-resistant Staphylococcus aureus 215073 clinical isolate after 20 to 24 hrs by two-fold microdilution method; format: functional
[2] = Solubility of the compound in water at 25 degC measured after shaking for 4 hrs by UV method; format: physicochemical; details: buffer, 4 h
[3] = test system: Staphylococcus aureus; assay: Antibacterial activity against methicillin-resistant Staphylococcus aureus 20534 clinical isolate after 20 to 24 hrs by two-fold microdilution method; format: functional
[4] = test system: Staphylococcus aureus; assay: Antibacterial activity against methicillin-resistant Staphylococcus aureus 1025022 clinical isolate after 20 to 24 hrs by two-fold microdilution method; format: functional
[5] = test system: Staphylococcus aureus; assay: Antibacterial activity against methicillin-resistant Staphylococcus aureus 316038 clinical isolate after 20 to 24 hrs by two-fold microdilution method; format: functional
[6] = test system: Staphylococcus aureus; assay: Antibacterial activity against methicillin-resistant Staphylococcus aureus 109244 clinical isolate after 20 to 24 hrs by two-fold microdilution method; format: functional
[7] = test system: Staphylococcus aureus; assay: Antibacterial activity against methicillin-resistant Staphylococcus aureus 414244 clinical isolate after 20 to 24 hrs by two-fold microdilution method; format: functional
[8] = test system: Staphylococcus aureus; assay: Antibacterial activity against methicillin-resistant Staphylococcus aureus 224001 clinical isolate after 20 to 24 hrs by two-fold microdilution method; format: functional
[9] = test system: Staphylococcus aureus; assay: Antibacterial activity against methicillin-resistant Staphylococcus aureus 123152 clinical isolate after 20 to 24 hrs by two-fold microdilution method; format: functional
[10] = test system: Staphylococcus aureus; assay: Antibacterial activity against methicillin-resistant Staphylococcus aureus 304243 clinical isolate after 20 to 24 hrs by two-fold microdilution method; format: functional
[11] = test system: Staphylococcus aureus; assay: Antibacterial activity against methicillin-resistant Staphylococcus aureus 1106003 clinical isolate after 20 to 24 hrs by two-fold microdilution method; format: functional
[12] = test system: Staphylococcus aureus; assay: Antibacterial activity against methicillin-resistant Staphylococcus aureus 518036 clinical isolate after 20 to 24 hrs by two-fold microdilution method; format: functional
[13] = test system: Staphylococcus aureus; assay: Antibacterial activity against methicillin-resistant Staphylococcus aureus GLH14 clinical isolate after 20 to 24 hrs by two-fold microdilution method; format: functional
[14] = test system: Staphylococcus aureus; assay: Antibacterial activity against methicillin-resistant Staphylococcus aureus clinical isolate after 20 to 24 hrs by two-fold microdilution method; format: functional
[15] = test system: Staphylococcus aureus; assay: Antibacterial activity against methicillin-resistant Staphylococcus aureus 912014 clinical isolate after 20 to 24 hrs by two-fold microdilution method; format: functional
[16] = test system: Staphylococcus aureus; assay: Antibacterial activity against methicillin-resistant Staphylococcus aureus 120827 clinical isolate after 20 to 24 hrs by two-fold microdilution method; format: functional
[17] = test system: Staphylococcus aureus; assay: Antibacterial activity against methicillin-resistant Staphylococcus aureus 212014 clinical isolate after 20 to 24 hrs by two-fold microdilution method; format: functional
[18] = test system: Staphylococcus aureus; assay: Antibacterial activity against methicillin-resistant Staphylococcus aureus 1207026 clinical isolate after 20 to 24 hrs by two-fold microdilution method; format: functional
[19] = test system: Staphylococcus aureus; assay: Antibacterial activity against methicillin-resistant Staphylococcus aureus 131215 clinical isolate after 20 to 24 hrs by two-fold microdilution method; format: functional
[20] = test system: Staphylococcus aureus; assay: Antibacterial activity against methicillin-resistant Staphylococcus aureus 1214023 clinical isolate after 20 to 24 hrs by two-fold microdilution method; format: functional
[21] = test system: Staphylococcus aureus; assay: Antibacterial activity against methicillin-resistant Staphylococcus aureus 1103006 clinical isolate after 20 to 24 hrs by two-fold microdilution method; format: functional
[22] = test system: Staphylococcus aureus; assay: Antibacterial activity against methicillin-resistant Staphylococcus aureus 112106 clinical isolate after 20 to 24 hrs by two-fold microdilution method; format: functional
[23] = test system: Streptococcus pyogenes; assay: Antibacterial activity against Streptococcus pyogenes ATCC 19615 after 20 to 24 hrs by two-fold microdilution method; format: functional
[24] = test system: Staphylococcus aureus; assay: Antibacterial activity against methicillin-resistant Staphylococcus aureus 202045 clinical isolate after 20 to 24 hrs by two-fold microdilution method; format: functional
[25] = test system: Staphylococcus aureus; assay: Antibacterial activity against methicillin-resistant Staphylococcus aureus 1012039 clinical isolate after 20 to 24 hrs by two-fold microdilution method; format: functional
[26] = test system: Enterococcus faecalis; assay: Antibacterial activity against Enterococcus faecalis ATCC 29212 after 20 to 24 hrs by two-fold microdilution method; format: functional
[27] = test system: Staphylococcus aureus; assay: Antibacterial activity against methicillin-resistant Staphylococcus aureus 1211026 clinical isolate after 20 to 24 hrs by two-fold microdilution method; format: functional
[28] = test system: Staphylococcus aureus; assay: Antibacterial activity against methicillin-resistant Staphylococcus aureus 221022 clinical isolate after 20 to 24 hrs by two-fold microdilution method; format: functional
[29] = test system: Staphylococcus aureus; assay: Antibacterial activity against methicillin-resistant Staphylococcus aureus 1212221 clinical isolate after 20 to 24 hrs by two-fold microdilution method; format: functional
[30] = test system: Escherichia coli; assay: Antibacterial activity against Escherichia coli ATCC 25922 after 20 to 24 hrs by two-fold microdilution method; format: functional
[31] = test system: Staphylococcus aureus; assay: Antibacterial activity against methicillin-resistant Staphylococcus aureus 519238 clinical isolate after 20 to 24 hrs by two-fold microdilution method; format: functional
[32] = test system: Staphylococcus aureus; assay: Antibacterial activity against methicillin-resistant Staphylococcus aureus 531220 clinical isolate after 20 to 24 hrs by two-fold microdilution method; format: functional
[33] = test system: Staphylococcus aureus; assay: Antibacterial activity against methicillin-resistant Staphylococcus aureus 111423 clinical isolate after 20 to 24 hrs by two-fold microdilution method; format: functional
[34] = test system: Staphylococcus aureus; assay: Antibacterial activity against methicillin-resistant Staphylococcus aureus 1216052 clinical isolate after 20 to 24 hrs by two-fold microdilution method; format: functional
[35] = test system: Staphylococcus aureus; assay: Antibacterial activity against methicillin-resistant Staphylococcus aureus 130031 clinical isolate after 20 to 24 hrs by two-fold microdilution method; format: functional
[36] = test system: Staphylococcus aureus; assay: Antibacterial activity against methicillin-resistant Staphylococcus aureus 502025 clinical isolate after 20 to 24 hrs by two-fold microdilution method; format: functional
[37] = test system: Staphylococcus aureus; assay: Antibacterial activity against methicillin-resistant Staphylococcus aureus 110328-1 clinical isolate after 20 to 24 hrs by two-fold microdilution method; format: functional
[38] = test system: Staphylococcus aureus; assay: Antibacterial activity against methicillin-resistant Staphylococcus aureus 1212057-1 clinical isolate after 20 to 24 hrs by two-fold microdilution method; format: functional
[39] = test system: Staphylococcus aureus; assay: Antibacterial activity against methicillin-resistant Staphylococcus aureus 316031 clinical isolate after 20 to 24 hrs by two-fold microdilution method; format: functional
[40] = test system: Staphylococcus aureus; assay: Antibacterial activity against methicillin-resistant Staphylococcus aureus 1024010 clinical isolate after 20 to 24 hrs by two-fold microdilution method; format: functional
[41] = test system: Staphylococcus aureus; assay: Antibacterial activity against methicillin-resistant Staphylococcus aureus 110414 clinical isolate after 20 to 24 hrs by two-fold microdilution method; format: functional
[42] = test system: Staphylococcus aureus; assay: Antibacterial activity against methicillin-resistant Staphylococcus aureus 908046 clinical isolate after 20 to 24 hrs by two-fold microdilution method; format: functional
[43] = test system: Staphylococcus aureus; assay: Antibacterial activity against methicillin-resistant Staphylococcus aureus 20339 clinical isolate after 20 to 24 hrs by two-fold microdilution method; format: functional
[44] = test system: Staphylococcus aureus; assay: Antibacterial activity against methicillin-resistant Staphylococcus aureus 219236 clinical isolate after 20 to 24 hrs by two-fold microdilution method; format: functional
[45] = test system: Staphylococcus aureus; assay: Antibacterial activity against methicillin-resistant Staphylococcus aureus 1215028 clinical isolate after 20 to 24 hrs by two-fold microdilution method; format: functional
[46] = test system: Staphylococcus aureus; assay: Antibacterial activity against methicillin-resistant Staphylococcus aureus 519030 clinical isolate after 20 to 24 hrs by two-fold microdilution method; format: functional
[47] = test system: Staphylococcus aureus; assay: Antibacterial activity against methicillin-resistant Staphylococcus aureus 111625 clinical isolate after 20 to 24 hrs by two-fold microdilution method; format: functional

O=C1c2cccnc2C(=O)c2c1c(C(=O)OCCCCCN1CCOCC1)c1ccc(Br)cn21
0.063 µg/mL: MIC [7] | MIC [12] | MIC [15] | MIC [17] | MIC [35] | MIC [43] | MIC [46]
16 µg/mL: MIC [11] | MIC [21] | MIC [33] | MIC [34]
≤ 7.8 ng/mL: MIC [1] | MIC [16] | MIC [18] | MIC [27] | MIC [32] | MIC [38] | MIC [45] | MIC [47]
8 µg/mL: MIC [23] | MIC [30]
0.016 µg/mL: MIC [19] | MIC [24]
0.125 µg/mL: MIC [3] | MIC90 [14] | MIC [20] | MIC [25] | MIC [31] | MIC [36]
0.031 µg/mL: MIC [4] | MIC [5] | MIC [6] | MIC [9] | MIC [10] | MIC [13] | MIC50 [14] | MIC [22] | MIC [28] | MIC [29] | MIC [37] | MIC [39] | MIC [40] | MIC [41] | MIC [42] | MIC [44]
Insoluble: solubility [2]
0.25 µg/mL: MIC [8] | MIC [26]
